We go through eight compounds from ChEMBL document CHEMBL4715849, “Recent Progress in the Discovery of Antifungal Agents Targeting the Cell Wall” (J Med Chem, 2020).

The nature of data set [1]: Inhibition of Mucor flavus IFO9560 chitin synthase incubated for 6 to 20 hrs by Lineweaver-Burk analysis.
In the next data set the test system is Mucor racemosus. The experiment in a line: Antifungal activity against Mucor racemosus IF09255 by serial broth dilution method. It counts as functional.
A short description of data set [2]: Antifungal activity against Mucor piriformis IF09416 by serial broth dilution method. Type of data set: functional.
Data set [3] concerns Mucor mucedo. The experiment in a line: Antifungal activity against Mucor mucedo IF07684 by serial broth dilution method. Type of data set: functional.
The subject of data set [4] is Mucor mucedo. The experiment in a line: Antifungal activity against Mucor mucedo IF06750 by serial broth dilution method. Type of data set: functional.
Data set [5] has as its system Mucor mucedo. The experiment in a line: Antifungal activity against Mucor mucedo IF05776 by serial broth dilution method. Type of data set: functional.
Another data set relates to Mucor hiemalis. The experiment in a line: Antifungal activity against Mucor hiemalis IFO9400 by serial broth dilution method. It counts as functional.
The next data set deals with Mucor javanicus. The experiment in a line: Antifungal activity against Mucor javanicus IFO4569 by serial broth dilution method. It counts as functional.
Data set [6] is described as follows: Antifungal activity against Mucor flavus IFO9560 by serial broth dilution method. Type of data set: functional.
Data set [7] in a line: Inhibition of Candida albicans GWT1 expressed in Saccharomyces cerevisiae using UDP-GlcNAc as substrate incubated for 20 mins followed by palmitoyl-CoA addition and measured after 2 hrs by TLC-based autography.
Data set [8] can be described thus: Inhibition of Aspergillus fumigatus GWT1 expressed in Saccharomyces cerevisiae using UDP-GlcNAc as substrate incubated for 20 mins followed by palmitoyl-CoA addition and measured after 2 hrs by TLC-based autography.
Data set [9] relates to Candida albicans. The experiment in a line: Antifungal activity against Candida albicans CAF2-1. Type of data set: functional.
Data set [10] relates to Aspergillus fumigatus. The experiment in a line: Antifungal activity against Aspergillus fumigatus(Tsukuba). Type of data set: functional.
Data set [11] relates to Candida albicans. The experiment in a line: Antifungal activity against Candida albicans Ca2323/ORF6.945 by CLSI method. Type of data set: functional.
Data set [12] concerns Candida albicans. The experiment in a line: Antifungal activity against Candida albicans Ca1055 by CLSI method. It counts as functional.
Another data set relates to Candida parapsilosis. The experiment in a line: Antifungal activity against Candida parapsilosis ATCC22019 by CLSI method. Type of data set: functional. The following applies: Lodderomyces parapsilosis.
A further data set relates to Clavispora lusitaniae. The experiment in a line: Antifungal activity against Candida lusitaniae MY1396 by CLSI method. Type of data set: functional.
For data set [13], the system named is Nakaseomyces glabratus. The experiment in a line: Antifungal activity against Candida glabrata MY1381 by CLSI method. It counts as functional.
The test system of data set [14] is Aspergillus fumigatus. The experiment in a line: Antifungal activity against Aspergillus fumigatus MF5668 by CLSI method. It counts as functional.
The subject of a further data set is Pichia kudriavzevii. The experiment in a line: Antifungal activity against Candida krusei ATCC 6258 by CLSI method. It counts as functional.
Data set [15] can be described thus: Inhibition of Candida albicans IFO1060 1,3-beta-D-glucan synthase.
The subject of data set [16] is Candida albicans. The experiment in a line: Antifungal activity against Candida albicans […] by NCCLS protocol based broth M27-A microdilution method. Type of data set: functional, organism-based.
In data set [17] the test system is Candida albicans. The experiment in a line: Antifungal activity against Candida albicans CY1002 infected in iv dosed ICR mouse administered as single dose measured on day 7. Type of data set: functional. The following applies: 168 h, time 7 day.
Data set [18] concerns Candida albicans. The experiment in a line: Antifungal activity against Candida albicans incubated for 24 hrs by serial 2-fold dilution method. It counts as functional.
In data set [19] the test system is Nakaseomyces glabratus. The experiment in a line: Antifungal activity against Candida glabrata incubated for 24 hrs by serial 2-fold dilution method. It counts as functional.
The test system of a further data set is Candida tropicalis. The experiment in a line: Antifungal activity against Candida tropicalis incubated for 24 hrs by serial 2-fold dilution method. It counts as functional.
The subject of data set [20] is Candida albicans. The experiment in a line: Antifungal activity against Candida albicans AMB-25 incubated for 48 hrs by serial two-fold dilution method. It counts as functional.
Data set [21] in a line: Toxicity in iv dosed mouse. The following applies: in vivo. It counts as organism-based.
A short description of data set [22]: Inhibition of Saccharomyces cerevisiae CGMCC 2.145 CHS using UDP-GlcNAc as substrate incubated for 60 min by WGA-HRP tracer based method.
Data set [23] can be described thus: Inhibition of Candida albicans IFO1060 1,3-beta-D-glucan synthase using UDP-[6-3H]-glucose as substrate incubated for 30 mins by radioactivity.
The test system of data set [24] is Candida albicans. The experiment in a line: Antifungal activity against Candida albicans ATCC 48130 incubated for 1 day by NCCLS M27-A2 microdilution method. The following applies: ATCC 48130, 24 h. Type of data set: functional.
Data set [25] relates to Candida albicans. The experiment in a line: Antifungal activity against Candida albicans CY3003 incubated for 1 day by NCCLS M27-A2 microdilution method. Particulars: CY3003, 24 h. It counts as functional.
In data set [26] the test system is Candida albicans. The experiment in a line: Antifungal activity against Candida albicans CY1123 incubated for 1 day by NCCLS M27-A2 microdilution method. Particulars: CY1123, 24 h. Type of data set: functional.
Data set [27] concerns Candida albicans. The experiment in a line: Antifungal activity against Candida albicans CY1124 incubated for 1 day by NCCLS M27-A2 microdilution method. Type of data set: functional. Particulars: CY1124, 24 h.
The test system of data set [28] is Aspergillus fumigatus. The experiment in a line: Antifungal activity against Aspergillus fumigatus CF1083 incubated for 1 day by NCCLS M27-A2 microdilution method. Type of data set: functional. The following applies: CF1083, 24 h.
Data set [29] has as its system Aspergillus fumigatus. The experiment in a line: Antifungal activity against Aspergillus fumigatus CF1003 incubated for 1 day by NCCLS M27-A2 microdilution method. Type of data set: functional. Particulars: CF1003, 24 h.
The subject of data set [30] is Aspergillus fumigatus. The experiment in a line: Antifungal activity against Aspergillus fumigatus CF924390 incubated for 1 day by NCCLS M27-A2 microdilution method. Type of data set: functional. Particulars: CF924390, 24 h.
The subject of data set [31] is Candida albicans. The experiment in a line: Antifungal activity against Candida albicans ATCC2001 incubated for 2 day by NCCLS M27-A2 microdilution method. Type of data set: functional. Particulars: ATCC2001, 48 h.
Data set [32] concerns Candida albicans. The experiment in a line: Antifungal activity against Candida albicans IFO0005 incubated for 3 day by NCCLS M27-A2 microdilution method. Type of data set: functional. The following applies: IFO0005, 72 h.

SMILES strings stand for the structures. Values after ≈ are worked out from the molar mass of the structure shown. Where only a bound is given, the exact number is not on record here.

Consider `C[C@@H]1C[C@H]2O[C@@H]2/C=C\C=C\C(=O)Cc2c(Cl)c(O)cc(O)c2C(=O)O1` [RADICICOL], for which, in data set [1], the Ki was 87 µM. Further, the MIC (in the data set with Mucor racemosus; in data set [2]; with Mucor mucedo [3]; against Mucor mucedo [4]; with Mucor mucedo [5]; against Mucor hiemalis) was 0.39 µg/mL (≈ 1.07 µM) throughout. Further, the minimal inhibitory concentration (MIC) (in the data set with Mucor javanicus; in data set [6]) was 0.39 µg/mL (≈ 1.07 µM) throughout.
As for `Nc1ncccc1-c1cc(Cc2ccc(COc3ccccn3)cc2)no1` [MANOGEPIX], the IC50 in data set [7] amounted to 270 nM; in data set [8] it was 600 nM. For the same compound, the MIC against Candida albicans [9] stood at 0.05 µg/mL (≈ 0.14 µM); with Aspergillus fumigatus [10], 0.2 µg/mL (≈ 0.558 µM).
Take `C=C1[C@@H]2C[C@@H]3[C@H](C(C)C)[C@@H](OC(=O)CC(C)(O)CC(C)CC)C[C@@]3(C)C[C@H]2/C(C)=C\C[C@@H]2[C@@H](C)OC(=O)[C@H](O)[C@]12O` (some centres undefined): the MIC with Candida albicans [11] came out at 0.5 µg/mL (≈ 0.87 µM); in the data set with Candida albicans [12], 0.5 µg/mL (≈ 0.87 µM); in the data set on Candida parapsilosis, 0.5 µg/mL (≈ 0.87 µM); in the data set with Clavispora lusitaniae, 0.25 µg/mL (≈ 0.435 µM); in the data set on Nakaseomyces glabratus [13], 0.5 µg/mL (≈ 0.87 µM); against Aspergillus fumigatus [14], 0.25 µg/mL (≈ 0.435 µM). For the same compound, the MIC against Pichia kudriavzevii was 1 µg/mL (≈ 1.74 µM).
For the compound `CCCCCCCCCCCCC[C@H]1OC(=O)[C@H](CCCN)NC(=O)[C@@H]([C@@H](C)O)NC(=O)CNC(=O)[C@H]([C@H](O)CCN)NC(=O)[C@H]2[C@@H](O)CCN2C(=O)[C@H]([C@@H](C)O)NC(=O)[C@@H]2C[C@@H](O)CN2C(=O)[C@H](C(C)C)NC(=O)[C@H](Cc2ccc(O)cc2)NC(=O)[C@@H](C)NC(=O)[C@H]([C@@H](C)O)NC1=O`, the results for the IC50 (in data set [15]; in the data set with Candida albicans [16]) were 6 nM and 0.01 µg/mL (≈ 0.00712 µM), respectively. The compound also yielded a 50% effective dose (ED50) with Candida albicans [17] of 0.04 mg/kg.
On to `COC(=O)/C=C/C(=O)NC[C@H](NC(=O)CN(CCOC(C)=O)CCOC(C)=O)C(=O)OCOC(=O)Cc1ccccc1.Cl`, for which the results for the MIC in the data set on Candida albicans [18], against Nakaseomyces glabratus [19] and against Candida tropicalis were 31.3 µg/mL, 125 µg/mL and 31.3 µg/mL, respectively.
On to `CCC[C@H](N)C(=O)N[C@@H](CNC(=O)/C=C/C(=O)OC)C(=O)O`, for which, in the data set on Candida albicans [20], the MIC came out at 0.4 µg/mL (≈ 1.27 µM). In addition, the 50% lethal dose (LD50) in data set [21] is more than 300 mg/kg.
`COc1ccc(N2CCN(C(=O)[C@H](O)[C@@H](O)C(=O)Nc3c(O)c4cc(O)ccc4oc3=O)CC2)cc1` registered a 50% inhibitory concentration (IC50) in data set [22] of 100 µM.
On to `O=C(Nc1c(F)cccc1F)OCCCN1CCN(c2nc3ccccc3s2)CC1`, for which the IC50 in data set [23] was found to be 160 nM. Moreover, the minimum inhibitory concentration (MIC) with Candida albicans [24] turned out to be 0.26 µg/mL (≈ 0.601 µM); against Candida albicans [25], 0.26 µg/mL (≈ 0.601 µM); in the data set on Candida albicans [26], 0.26 µg/mL (≈ 0.601 µM); in the data set with Candida albicans [27] it was 0.26 µg/mL (≈ 0.601 µM); against Aspergillus fumigatus [28] it was 0.15 µg/mL (≈ 0.347 µM); against Aspergillus fumigatus [29] it was 0.15 µg/mL (≈ 0.347 µM). Moreover, the results for the minimum inhibitory concentration (MIC) in the data set on Aspergillus fumigatus [30], in the data set with Candida albicans [31] and against Candida albicans [32] were 0.15 µg/mL (≈ 0.347 µM), 0.17 µg/mL (≈ 0.393 µM) and 0.17 µg/mL (≈ 0.393 µM), respectively.
